Data as given in ChEMBL document CHEMBL5131440, “Antischistosomal tetrahydro-γ-carboline sulfonamides” (Bioorg Med Chem Lett, 2022).
In brackets after ≈: the same amount, converted by molar mass.

Legend:
[1] = Lipophilicity, log D of compound at pH 7.4 by gradient HPLC analysis; assay type: physicochemical; details: buffer
[2] = Solubility of compound in pH 2 0.01 M HCl by nephelometry; assay type: physicochemical
[3] = Solubility of compound in pH 6.5 phosphate buffer by nephelometry; assay type: physicochemical
[4] = Intrinsic clearance in human liver microsomes assessed per mg protein at 1 uM preincubated for 5 to 10 mins followed by NADPH-regenerating system addition and measured after 2 to 60 mins by LC-MS/MS analysis; assay type: ADME, Microsome; details: time 2-60 min
[5] = Intrinsic clearance in mouse liver microsomes assessed per mg protein at 1 uM preincubated for 5 to 10 mins followed by NADPH-regenerating system addition and measured after 2 to 60 mins by LC-MS/MS analysis; assay type: ADME, Microsome; details: time 2-60 min
[6] = Cytotoxicity against rat L6 cells assessed as reduction in cell viability measured after 70 hrs by alamar blue reagent based fluorescence assay; assay type: toxicity
[7] = system: Schistosoma mansoni; test: Antischistosomal activity against Schistosoma mansoni Liberian adult worms assessed as reduction in worm viability measured after 72 hrs by microscopy; assay type: functional, organism-based
[8] = system: Schistosoma mansoni; test: Antischistosomal activity against Schistosoma mansoni adult worms at 10 uM measured at 24 hrs interval for 72 hrs relative to control; assay type: functional
[9] = system: Schistosoma mansoni; test: Antischistosomal activity against Schistosoma mansoni NTS assessed as reduction in parasite viability measured at 24 hrs interval for 72 hrs by bright-field microscopy; assay type: functional, organism-based
[10] = system: Schistosoma mansoni; test: Antischistosomal activity against Schistosoma mansoni adult worms measured at 24 hrs interval for 72 hrs; assay type: functional, organism-based

SMILES | logD [1] | solubility kinetic [2] | solubility kinetic [3] | intrinsic clearance [4] | intrinsic clearance (CLint) [5] | IC50 at 70 h [6] | IC50 [7] | Activity [8] | IC50 [9] | IC50 [10]
O=C1CCN(S(=O)(=O)c2ccc(F)cc2)CC(=O)c2ccccc2N1 | 2.5 | 50 µg/mL (≈ 138 µM) | 50 µg/mL (≈ 138 µM) | 40 µL/min | 107 µL/min | > 280 µM | – | – | – | –
NC(=O)c1ccc2[nH]c3c(c2c1)CN(S(=O)(=O)c1ccc(F)cc1)CC3 | 2.6 | 12.5 µg/mL (≈ 33.5 µM) | 6.3 µg/mL (≈ 16.9 µM) | 124 µL/min | 81 µL/min | 100 µM | – | – | – | –
O=S(=O)(c1cnc[nH]1)N1CCc2[nH]c3ccccc3c2C1 | 2 | 50 µg/mL (≈ 165 µM) | 50 µg/mL (≈ 165 µM) | < 7 µL/min | 17 µL/min | 170 µM | – | – | – | –
O=S(=O)(c1ccc(F)cc1)N1CCc2c([nH]c3ccccc23)C1 | 4.1 | < 1.6 µg/mL | < 1.6 µg/mL | 120 µL/min | 445 µL/min | 53 µM | – | – | – | –
O=S(=O)(c1cccnc1)N1CCc2[nH]c3ccccc3c2C1 | 3.1 | 12.5 µg/mL (≈ 39.9 µM) | 6.3 µg/mL (≈ 20.1 µM) | 117 µL/min | 561 µL/min | 110 µM | – | – | – | –
O=C(O)c1ccc2[nH]c3c(c2c1)CN(S(=O)(=O)c1ccc(F)cc1)CC3 | 1.4 | 3.1 µg/mL (≈ 8.28 µM) | 50 µg/mL (≈ 134 µM) | < 7 µL/min | < 7 µL/min | 240 µM | – | – | – | –
O=S(=O)(c1ccc(F)cc1)N1CCc2[nH]c3ccc(F)cc3c2C1 | 4.1 | 3.1 µg/mL (≈ 8.9 µM) | 1.6 µg/mL (≈ 4.59 µM) | 105 µL/min | > 866 µL/min | 150 µM | – | – | – | –
O=S(=O)(c1ccc(F)cc1)N1CCc2[nH]c3ncccc3c2C1 | 3.2 | 50 µg/mL (≈ 151 µM) | 12.5 µg/mL (≈ 37.7 µM) | 62 µL/min | 339 µL/min | 82 µM | – | – | – | –
O=S(=O)(Cc1ccc(F)cc1)N1CCc2[nH]c3ccccc3c2C1 | 3.9 | 3.1 µg/mL (≈ 9 µM) | 1.6 µg/mL (≈ 4.65 µM) | 135 µL/min | 688 µL/min | 56 µM | – | – | – | –
O=C(O)c1ccc(S(=O)(=O)N2CCc3[nH]c4ccccc4c3C2)cc1 | 1.6 | 3.1 µg/mL (≈ 8.7 µM) | 25 µg/mL (≈ 70.1 µM) | 11 µL/min | < 7 µL/min | 190 µM | – | – | – | –
CS(=O)(=O)N1CCc2[nH]c3ccccc3c2C1 | 2.6 | 25 µg/mL (≈ 99.9 µM) | 25 µg/mL (≈ 99.9 µM) | 12 µL/min | 21 µL/min | 290 µM | – | – | – | –
NC(=O)Cn1c2c(c3ccccc31)CN(S(=O)(=O)c1ccc(F)cc1)CC2 | – | 3.1 µg/mL (≈ 8 µM) | 3.1 µg/mL (≈ 8 µM) | 75 µL/min | 176 µL/min | 150 µM | – | – | – | –
O=C(C1CCCCC1)N1CC(=O)N2CCc3ccccc3C2C1 (centres undefined) [PRAZIQUANTEL] | – | – | – | – | – | – | 0.077 µM | – | – | –
O=S(=O)(c1ccc(F)cc1)N1CCc2[nH]c3ccccc3c2CC1 | 4.2 | < 1.6 µg/mL | < 1.6 µg/mL | 123 µL/min | > 866 µL/min | 83 µM | – | – | – | –
N#Cc1ccc2[nH]c3c(c2c1)CN(S(=O)(=O)c1ccc(F)cc1)CC3 | 3.8 | 1.6 µg/mL (≈ 4.5 µM) | 1.6 µg/mL (≈ 4.5 µM) | 399 µL/min | 230 µL/min | 33 µM | – | – | – | –
O=S(=O)(c1ccc(F)cc1)N1CCc2[nH]c3ccccc3c2C1 | 4 | 1.6 µg/mL (≈ 4.84 µM) | 1.6 µg/mL (≈ 4.84 µM) | 120 µL/min | > 866 µL/min | 52 µM | – | 59% | 1.2 µM | 4.2 µM
O=C(Nc1ccc(F)cc1)N1CCc2[nH]c3ccccc3c2C1 | 3.4 | 6.3 µg/mL (≈ 20.4 µM) | 6.3 µg/mL (≈ 20.4 µM) | 82 µL/min | 130 µL/min | 85 µM | – | – | – | –
O=C(c1ccc(F)cc1)N1CCc2[nH]c3ccccc3c2C1 | 3.3 | 6.3 µg/mL (≈ 21.4 µM) | 6.3 µg/mL (≈ 21.4 µM) | 111 µL/min | 184 µL/min | 69 µM | – | 24% | – | –
O=C(c1ccc2[nH]c3c(c2c1)CN(S(=O)(=O)c1ccc(F)cc1)CC3)N1CCOCC1 | 3 | 12.5 µg/mL (≈ 28.2 µM) | 6.3 µg/mL (≈ 14.2 µM) | 89 µL/min | 120 µL/min | 130 µM | – | – | – | –
CS(=O)(=O)c1ccc(S(=O)(=O)N2CCc3[nH]c4ccccc4c3C2)cc1 | 3.4 | 3.1 µg/mL (≈ 7.94 µM) | 3.1 µg/mL (≈ 7.94 µM) | 57 µL/min | 156 µL/min | > 250 µM | – | 43% | 3.3 µM | –
O=S(=O)(c1ccc(C(F)(F)F)cc1)N1CCc2[nH]c3ccccc3c2C1 | 4.3 | < 1.6 µg/mL | < 1.6 µg/mL | 50 µL/min | 431 µL/min | 81 µM | – | – | – | –
O=S(=O)(c1ccc(Cl)cc1)N1CCc2[nH]c3ccccc3c2C1 | 4.2 | 1.6 µg/mL (≈ 4.61 µM) | 1.6 µg/mL (≈ 4.61 µM) | 74 µL/min | 607 µL/min | 53 µM | – | – | – | –
O=S(=O)(C1CCOCC1)N1CCc2[nH]c3ccccc3c2C1 | 2.9 | 25 µg/mL (≈ 78 µM) | 25 µg/mL (≈ 78 µM) | 34 µL/min | 674 µL/min | 160 µM | – | – | – | –
O=S(=O)(c1ccc(Br)cc1)N1CCc2[nH]c3ccccc3c2C1 | 4.4 | < 1.6 µg/mL | < 1.6 µg/mL | 102 µL/min | 446 µL/min | 26 µM | – | 67% | 4.9 µM | 4.4 µM
Cc1ccc(S(=O)(=O)N2CCc3[nH]c4ccccc4c3C2)cc1 | 4.1 | 1.6 µg/mL (≈ 4.9 µM) | 1.6 µg/mL (≈ 4.9 µM) | 170 µL/min | 540 µL/min | 29 µM | – | – | – | –
O=S(=O)(c1ccccc1)N1CCc2[nH]c3ccccc3c2C1 | 3.9 | 1.6 µg/mL (≈ 5.12 µM) | 1.6 µg/mL (≈ 5.12 µM) | 250 µL/min | > 866 µL/min | 100 µM | – | – | – | –
